# Measurements as given in PMC5344125 (Nano letters, 2016).
# System: LS174T secreted proteases
# Assay: Secreted protease activity assay with conditioned supernatant
# Type: biochemical, human
# Conditions: fluorescently quenched substrates, MMP inhibitor added
smiles,measurement,value
CNC(=O)[C@@H](NC(=O)[C@H](CC(C)C)[C@H](O)C(=O)NO)C(C)(C)C [Marimastat],in vitro proteolysis of substrates in the presence of Marimastat,abrogated
